The record followed here is patent US7449477B2, “7-phenyl-isoquinoline-5-sulfonylamino derivatives as inhibitors of akt (protein kinase B)” (Eli Lilly and Company, priority 2003, dated 2008).

pIC50: −log10 of the molar value. Counter-ions that a name gives are not always drawn.

The experiment concerns the target T1, active human Akt1 (Homo sapiens, UniProt P31749).
T1 construct: Active human recombinant Akt1 (full-length) purified from Sf9 insect cells; purchased Upstate Biotechnology, Inc. 14-276; host or cells: Sf9 insect cells
Nature of the experiment: Akt1 Phosphorylation Assay (phosphocellulose filter-binding, 33P-Crosstide). The experiment is classed as biochemical. The settings on record: active human recombinant Akt1 (full-length) 10 nM; 12.5 μM Crosstide; 20 μM ATP; 30 minutes at room temperature. Here is the method:
Akt1 Phosphorylation Assay
The assay described measures the phosphorylation of Crosstide by active human Akt1 and other Akt isoforms. Crosstide contains a consensus sequence derived from Akt substrates GSK3b and forkhead transcription factors (FKs). The ^33P-labeled Crosstide substrate is captured by phosphocellulose membrane filter plates.
Active human recombinant Akt1 (full-length) purified from Sf9 insect cells is from Upstate Biotechnology, Inc. (Cat. #14-276, 405 μg/ml). Crosstide substrate, NH2-GRPRTSSFAEG-COOH (M.W.1164) is purchased from Multiple Peptide System (Cat. # L59/GR145-153).
Solution (A): 20% DMSO (dimethylsulphoxide) or Compound in 20% DMSO; Solution (B): Assay Buffer Mix: 31.25 μM Crosstide, 37.5 mM MgCl2, 87.5 mM HEPES, pH 7.3, 50 μM ATP γ-^33P-ATP, 0.05 μCi/μl; Solution (C): Akt Kinase Mix: 31.25 mM HEPES, pH 7.3; 1 mM DTT, 25 nM UBI Akt1.
Procedure for Phosphocellulose Filter-Binding Assay
Ten μl of Solution (A) are first mixed with 20 μl Solution (B). The enzymatic reaction is initiated by adding 20 μl Solution (C) to the mixture. (Final concentration or amount in a 50-μl reaction mix: 4% DMSO or various compound concentration in 4% DMSO; 12.5 μM Crosstide; 15 mM MgCl2; 35 mM HEPES, pH7.3; 20 μM ATP; 1 μCi γ-^33P-ATP; 0.4 mM DTT; 10 nM UBI Akt1.) The reactions are performed in 96-well microtiter plates.
After 30 minutes at room temperature, the reaction is terminated by adding 80 μl of 10% H3PO4. An aliquot of 100 μl from each well is transferred to the phosphocellulose filter plate (Millipore MultiScreen, Catalog #MAPHN0B50). After 30 minutes, the reaction mix is filtered with a Millipore manifold following by 3 washes with 0.5% H3PO4. The filter is then vacuum-dried and the plate is fitted onto a Packard carrier. 100 μl/well Microscint20 are added and the contents are counted in a Packard Top Count.

T1 sequence (P31749 whole entry): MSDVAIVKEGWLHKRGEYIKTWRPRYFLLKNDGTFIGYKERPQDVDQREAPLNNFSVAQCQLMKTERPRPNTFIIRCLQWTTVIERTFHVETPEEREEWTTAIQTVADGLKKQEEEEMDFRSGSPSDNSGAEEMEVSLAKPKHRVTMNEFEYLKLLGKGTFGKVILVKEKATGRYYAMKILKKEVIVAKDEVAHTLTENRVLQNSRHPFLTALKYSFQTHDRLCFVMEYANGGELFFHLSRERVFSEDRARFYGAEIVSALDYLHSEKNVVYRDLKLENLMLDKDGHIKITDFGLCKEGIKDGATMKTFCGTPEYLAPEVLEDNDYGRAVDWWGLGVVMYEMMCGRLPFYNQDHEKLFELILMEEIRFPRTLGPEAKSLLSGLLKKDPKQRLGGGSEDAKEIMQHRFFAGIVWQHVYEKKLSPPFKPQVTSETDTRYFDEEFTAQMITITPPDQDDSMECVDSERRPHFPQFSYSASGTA

Consider `O=[N+]([O-])c1ccc(CCCNCCNS(=O)(=O)c2cc(-c3ccccc3)cc3cnccc23)c(CCO)c1` [Example 58, 7-Phenyl-isoquinoline-5-sulfonic acid {2-[3-(2-(2-hydroxy-ethyl)-4-nitro-phenyl)-propylamino]-ethyl}-amide, dihydrochloride salt], for which the pIC50 was no less than 5.70. Then `O=C(O)c1cc([N+](=O)[O-])ccc1CCCNCCNS(=O)(=O)c1cc(-c2ccccc2)cc2cnccc12` [Example 64, 7-Phenyl-isoquinoline-5-sulfonic acid {2-[3-(2-carboxy-4-nitrophenyl)-propylamino]-ethyl}-amide, dihydrochloride salt], with no less than 5.70; and `O=S(=O)(NCCNCCCc1ccccc1N1CCNCC1)c1cc(-c2ccccc2)cc2cnccc12` [Example 11, 7-Phenyl-isoquinoline-5-sulfonic acid {2-[3-(2-(piperazin-1-yl-phenyl)-propylamino]-ethyl}-amide, tetrahydrochloride salt], with no less than 5.70. To `CS(=O)(=O)c1ccc(CCCNCCNS(=O)(=O)c2cc(-c3ccccc3)cc3cnccc23)cc1` [Example 100, 7-Phenyl-isoquinoline-5-sulfonic acid {2-[3-(4-methanesulfonyl-phenyl)-propylamino]-ethyl}-amide, dihydrochloride salt] belongs no less than 5.70; to `COc1ccc(CCCNCCNS(=O)(=O)c2cc(-c3cccc(O)c3)cc3cnccc23)c(F)c1` [Example 110, 7-(3-Hydroxy-phenyl)-isoquinoline-5-sulfonic acid {2-[3-(2-fluoro-4-methoxy-phenyl)-propylamino]-ethyl}-amide], no less than 5.70; to `O=[N+]([O-])c1ccc(C(O)CCNCCNS(=O)(=O)c2cc(-c3ccccc3)cc3cnccc23)cc1` (stereo not drawn) [Example 73, 7-Phenyl-isoquinoline-5-sulfonic acid [2-(3-hydroxy-3-(4-nitrophenyl)-propylamino)-ethyl]-amide, dihydrochloride salt], no less than 5.70. Consider `Cc1cc([N+](=O)[O-])ccc1CCCNCCNS(=O)(=O)c1cc(-c2ccccc2)cc2cnccc12` [Example 40, 7-Phenyl-isoquinoline-5-sulfonic acid {2-[3-(2-methyl-4-nitrophenyl)-propylamino]-ethyl}-amide, dihydrochloride salt], for which the pIC50 was no less than 5.70. To `O=[N+]([O-])c1ccc(CCCNCCNS(=O)(=O)c2cc(-c3cccc(F)c3)cc3cnccc23)cc1` [Example 93, 7-(3-fluorophenyl)-isoquinoline-5-sulfonic acid [2-(3-(4-nitrophenyl)-propylamino)-ethyl]-amide] belongs no less than 5.70. As to `O=S(=O)(NCCNCCCc1ccc(Cl)cc1OCCN1CCOCC1)c1cc(-c2ccccc2)cc2cnccc12` [Example 69, 7-Phenyl-isoquinoline-5-sulfonic acid (2-{3-[4-chloro-2-(2-morpholino-4-yl-ethoxy)-phenyl]-propylamino}-ethyl)-amide, dihydrochloride salt], the pIC50 is no less than 5.70.

Regarding `CN(C)CCOc1cc(Cl)ccc1CCCNCCNS(=O)(=O)c1cc(-c2ccccc2)cc2cnccc12` [Example 59, 7-Phenyl-isoquinoline-5-sulfonic acid {2-[3-(4-chloro-2-(2-dimethylamino-ethoxy)-phenyl)-propylamino]-ethyl}-amide, dihydrochloride salt], the pIC50 was no less than 5.70. Regarding `N#Cc1ccc(CCCNCCNS(=O)(=O)c2cc(-c3ccccc3)cc3cnccc23)cc1C(F)(F)F` [Example 67, 7-Phenyl-isoquinoline-5-sulfonic acid {2-[3-(4-cyano-3-trifluoromethylphenyl)-propylamino]-ethyl}-amide, dihydrochloride salt], the pIC50 is no less than 5.70. Then `O=[N+]([O-])c1ccc(CCCNCCNS(=O)(=O)c2cc(-c3ccc(O)cc3)cc3cnccc23)cc1` [Example 98, 7-(4-hydroxy-phenyl)-isoquinoline-5-sulfonic acid {2-[3-(4-nitro-phenyl)-propylamino]-ethyl}-amide, dihydrochloride salt], with no less than 5.70.
